Experimental data as given in patent US20160081959A1 (Glanbia plc, priority 2014, published 2016).
Like-named read-outs stand apart in the source and are kept apart here.

Tests used:
[1] = Single dose oral pharmacokinetic study in fasted male Sprague Dawley rats (arginine in plasma, LC-MS/MS); format: in vivo
Procedure: Oral PK was determined in rats for ASI and several comparative compounds.
Test system: Sprague Dawley rats, male. Aged 7-9 weeks at the time of receipt.
Sample size: Study groups—4 groups per study; 5 animals/group.
The test compounds were administered through oral gavage. Oral route of administration is one of the preferred routes of administration in humans.
Study Group 1: Single dose oral pharmacokinetic study of ResArgin in male Sprague Dawley rats at a dose equivalent to 500 mg of L-Arginine/kg body weight. Male Sprague Dawley Rats aged 8-10 weeks were used for experimentation after a minimum 3 days of acclimatization. Fasted animals were administered ResArgin in a recommended vehicle (0.5% (w/v) Carboxymethylcellulose in sterile water) by oral route with a dose equivalent to 500 mg L-Arginine/kg body weight at dose volume of 10 mL/kg body weight.
Under mild isoflurane anesthesia, blood specimens were collected at time points (0.0 h, 0.16 h, 0.25 h, 0.50 h, 1.00 h, 2.00 h, 4.00 h, 6.00 h) post-dose as mentioned in Table 1 into pre-labeled tubes containing anticoagulant (K2EDTA—2 mg/mL blood) during the next 24 hours. Collected blood specimens were centrifuged at 4000 rpm, 4° C. for 10 minutes and plasma was separated and stored at −80° C. until analysis.
Study Group 2: Single dose oral pharmacokinetic study of L-Arginine in male Sprague Dawley rats at a dose of 500 mg/kg body weight. Male Sprague Dawley Rat aged 8-10 weeks were used for experimentation after a minimum 3 days of acclimatization. Fasted animals were administered L-Arginine in a recommended vehicle (0.5% (w/v) Carboxymethylcellulose in sterile water by oral route with 500 mg/kg body weight at dose volume of 10 mL/kg body weight.
Study Group 3: Single dose oral pharmacokinetic study of L-Arginine HCl in male Sprague Dawley rats at a dose equivalent to 500 mg of L-Arginine/kg body weight. Male Sprague Dawley Rats aged 8-10 weeks were used for experimentation after a minimum 3 days of acclimatization. Fasted animals were administered L-Arginine HCl in a recommended vehicle (0.5% (w/v) Carboxymethylcellulose in sterile water) by oral route with a dose equivalent to 500 mg L-Arginine/kg body weight at dose volume of 10 mL/kg body weight.
Male Sprague Dawley Rats aged 8-10 weeks were used for experimentation after a minimum 3 days of acclimatization.
Bioanalytical method(s) for the determination of arginine in Rat plasma were developed using LC-MS/MS. The developed methods were used for plasma sample analysis. Chromatograms were acquired using Analyst® software version 1.4.2. The concentration of the unknown sample was calculated from the following equation using regression analysis with peak area ratio of standard and ISD vs calibration standards concentration, using weighting factor (1/x^2) in accordance with Equation (1): […]
The pharmacokinetic parameters including Cmax, Tmax, AUC0-t, AUC0-inf, T1/2 and MRTlast of the arginine in rat plasma were determined from the concentration time data by using non-compartmental analysis (Phoenix WinNonlin 6.3, Pharsight Corporation, Princeton, N.J., USA).
Statistical analysis of PK parameters was performed by one way ANOVA followed by Dunnett's Post Test (L-Arginine Base vs ResArgin, L-Arginine HCl, and Arginine Silicate Inositol, respectively).

vasodilatory response = conditions: in vivo; cited from earlier work
wound healing [2] = conditions: 17 g/day, after two weeks, cited from earlier work
wounds = conditions: ingested; mice; cited from earlier work
[3] = Human clinical PK/PD/safety study of Nitrosigine (plasma arginine, serum silicon); format: in vivo
From the text: See, Kalman D, Feldman S, Samson A, Krieger D., “A clinical evaluation to determine the safety, pharmacokinetics and pharmacodynamics of an inositol-stabilized arginine silicate dietary supplement in healthy adult males,” The FASEB Journal (April 2014) 28(1 Suppl.): LB418.
Purpose: The purpose of this study was to characterize the PK/PD of Nitrosigine®, an inositol-stabilized arginine silicate dietary supplement.
Type: Prospective, pharmacokinetic (PK)/pharmacodynamic (PD)/safety clinical trial.
Dosing: Nitrosigine® was administered as daily doses of 1,500 mg (3×500 mg tablets).
Visit 2: single dose evaluation (0-6 hrs), 1500 mg—this was also utilized as the first dose of the 14 day study. It is noted in addition that Visit 2 is also the beginning of the 14 day study, during which subjects take product once a day for 14 days.
Visit 3: 14 days later, single dose (0-6 hrs)
PK Measurements: Plasma arginine and serum silicon levels were measured after the first dose on Day 1 and again after a dose taken on Day 14, after 14 days of dosing.

Nitric oxide (NO) levels = assay: Nitric oxide levels by salivary test strips in the human clinical study; format: in vivo
Procedure: NO was measured using salivary test strips, using a color scale for “Depleted”, “Low”, and “Normal” levels. […] Six subjects who were “Depleted” at Visit 2 increased to “Low” at Visit 3, while no subjects went from “Low” at Visit 2 to “Depleted” at Visit 3. In addition, the Visit 3 treatment after 1 hr gave 3 subjects “Depleted”, 4 subjects “Low”, and 3 subjects “Normal.” This “asymmetric” change pattern was statistically significant (p=0.031).

[4] = system: blood proteins related to vasodilation and heart health; assay: Blood proteins after ASI treatment; conditions: in vivo
wound healing [5] = assay: Example 1: oral ASI, Kirk, et al. wound healing protocol in human volunteers; format: in vivo; conditions: ASI 1500 mg daily, 2 weeks; expected
Procedure: The Kirk, et al. protocol is used as follows. […] Fifteen volunteers receive a placebo tablet. Fibroplastic wound responses are assessed by inserting a polytetrafluoroethylene catheter subcutaneously into the right deltoid region. Epithelialization is examined by creating a 2×2 cm split thickness wound on the lateral aspect of the upper thigh. Mitogenic response of peripheral blood lymphocytes to concanavalin A, phytohemagglutinin, pokeweed mitogen, and allogeneic stimuli is assayed at the beginning and end of supplementation. Polytetrafluoroethylene catheters were analyzed for alpha-amino nitrogen (assessment of total protein accumulation), hydroxyproline (index of reparative collagen synthesis), and DNA accumulation (index of cellular infiltration).

wound healing [6] = assay: Example 2: topical ASI hydrogel, Vits, et al. ablative laser wound protocol; format: in vivo, human; conditions: expected
Procedure: Wound 1 (2013) December 30.
The Vits, et al. protocol is used as follows. In 22 healthy men (experimental group, n=11; control group, n=11) wounds are induced by ablative laser on both thighs. Hydrogel (placebo) is applied on one of the two wounds, and Hydrogel (containing ASI) is applied on the wound of the other thigh. Progress in wound healing was documented via planimetry on days 1, 4 and 7 after wound induction. From day 9 onwards wound inspections were performed daily accompanied by a change of the dressing and a new application of the gel.

[7] = system: muscle soreness, muscle damage, and recovery; assay: Example 3: clinical study of muscle soreness, muscle damage and recovery; format: in vivo, human; conditions: ASI 750 mg 2×/day for 14 days with training regimen; expected
Procedure: Clinical Study to measure muscle soreness, muscle damage, and recovery. Crossover PCT.
Study group: n=16 males exercising <150 mins/week.
Secondary endpoints: NO level, blood pressure, heart rate, leg circumference, patient survey/self-assessment, e.g., visual analog scale (VAS) for pain, intramuscular biopsy.

[8] = arginine in plasma, fasted male Sprague Dawley rats, single oral dose equivalent to 500 mg L-Arginine/kg b.w.
[9] = rat, 500 mg/kg, arginine in plasma, fasted male Sprague Dawley rats, single oral dose equivalent to 500 mg L-Arginine/kg b.w.
[10] = rat, 500 mg/kg, arginine in plasma, fasted male Sprague Dawley rats, single oral dose equivalent to 500 mg L-Arginine/kg b.w., read-out: Cmax
[11] = rat, 500 mg/kg, arginine in plasma, fasted male Sprague Dawley rats, single oral dose equivalent to 500 mg L-Arginine/kg b.w., read-out: Tmax
[12] = plasma arginine, rat, oral, 500 mg/kg L-Arginine equivalent

`N=C(N)NCCC[C@H](N)C(=O)O` [L-Arginine Base, L-Arginine] gave an AUC% extrap [1, 8] of 8.195 ± 5.9280%, an AUC(0-inf) [1, 9] of 486 ± 114 µg·h/mL and an AUC(0-t) [1, 9] of 445 ± 106 µg·h/mL. It also gave an MRT last [1, 9] of 1.66 ± 0.34 h, a half-life [1, 9] of 1.41 ± 0.51 h and a Cmax [1, 10] of 202 ± 54.3 µg/mL. For the same molecule, the Tmax [1, 11] was 0.65 ± 0.335 h and the “amount that induces a significant vasodilatory response” value (vasodilatory response) was “ca. 5 grams”.

`Cl.N=C(N)NCCC[C@H](N)C(=O)O` [L-Arginine HCl, L-Arginine hydrochloride] showed an AUC% extrap [1, 8] of 27.645 ± 23.5890%, an AUC(0-inf) [1, 9] of 442 ± 122 µg·h/mL and an AUC(0-t) [1, 9] of 306 ± 92.7 µg·h/mL. For the same molecule, the MRT last [1, 9] was 2.48 ± 0.368 h, the half-life [1, 9] was 3.08 ± 2.08 h and the Cmax [1, 10] was 94.7 ± 26.2 µg/mL. The Tmax [1, 11] was 1.1 ± 0.548 h and the “amount that induces a significant vasodilatory response” value (vasodilatory response) was “ca. 5 grams”.

In the case of `N=C(N)NCCC[C@H](N)C(=O)O` [arginine, L-arginine], the “hydroxyproline and protein accumulation at the wound site vs non-supplemented controls” value (wound healing [2]; 30 elderly patients) is given as “significantly greater”, the IGF-1 (wound healing [2]) is given as “elevated” and the lymphocyte response (wound healing [2]) is given as “elevated”.

In the case of `O=[Si]=O` [silica], the “closing and healing of wounds” value (wounds) is given as “effective at helping to close and heal wounds”.

In the case of arginine silicate inositol [ASI], the AUC% extrap [1, 8] is reported as 16.987 ± 10.5790%, the AUCinf [1, 8] is reported as 1499.898 ± 233.6230 µg·h/mL and the AUClast [1, 8] is reported as 1248.990 ± 276.1000 µg·h/mL. For the same molecule, the Cmax [1, 8] was 474.300 ± 169.1040 µg/mL, the MRTlast [1, 8] was 2.220 ± 0.2450 h and the T1/2 [1, 8] was 2.159 ± 0.8280 h. For the same molecule, the Tmax [1, 8] was 1.100 ± 0.5480 h, the “AUCinf increase compared with Arginine base” value [1, 12] was 3 fold and the “AUCinf increase over Arginine base in plasma” value [1, 12] was 209%. For the same molecule, the “Cmax increase compared with Arginine base” value [1, 12] was 2.35 fold, the “Cmax increase over Arginine base in plasma” value [1, 12] was 135% and the “adverse events related to the study medication” value ([3]; 1,500 mg daily for 14 days, 10 subjects) was “No adverse events related to the study medication”. For the same molecule, the “increase of plasma arginine concentration relative to baseline” value ([3]; in 30 minutes, single dose 1,500 mg, human) was “greater than 30%”, the “Arginine absorption: Tmax Day 1” value ([3]; plasma arginine, 10 healthy males, 1,500 mg oral, Day 1) was 1.05 ± 0.50 h and the “Silicon absorption: Tmax Day 1” value ([3]; serum silicon, 10 healthy males, 1,500 mg oral, Day 1) was 2.15 ± 1.75 h. For the same molecule, the “duration of significantly raised blood arginine and silicon levels” value ([3]; single dose, human) was “up to 3 hours”, the “change in NO levels after 14 days of administration” value (Nitric oxide (NO) levels; 1,500 mg/day for two weeks, Visit 2 vs Visit 3) was “significant increase” and the “subjects with NO level Depleted” value (Nitric oxide (NO) levels; Visit 3 treatment after 1 hr) was 3 subjects. The “subjects with NO level Low” value (Nitric oxide (NO) levels; Visit 3 treatment after 1 hr) was 4 subjects, the “subjects with NO level Normal” value (Nitric oxide (NO) levels; Visit 3 treatment after 1 hr) was 3 subjects and the “subjects who were Depleted at Visit 2 and increased to Low at Visit 3” value (Nitric oxide (NO) levels; salivary NO strips, 10 subjects, 14 days daily dosing) was “Six”. The “effect on blood proteins related to vasodilation and heart health” value [4] was “significantly enhances”, the “rate of epithelialization of the skin defect vs placebo” value (wound healing [5]) was “significantly enhanced” and the “rate of wound healing vs placebo” value (wound healing [5]) was “increased”. The “serum insulin-like growth factor-1 (IGF-1) levels” value (wound healing [5]) was “significantly elevated”, the “wound catheter hydroxyproline accumulation and total protein content vs placebo” value (wound healing [5]) was “increase” and the “wound healing of wounds treated with ASI-containing gel vs placebo hydrogel” value (wound healing [6]) was “more rapid improvement in wound healing”. For the same molecule, the “cytokine markers of inflammation” value [7] was “decrease or improvement”, the “listed measurement parameters (e.g. NO levels)” value [7] was “improve” and the “amount with which similar vasodilatory responses have been shown” value (vasodilatory response) was 750 mg.
